This is an account of results in patent US20160074401A1, “COMPOSITIONS AND METHODS UTILIZING PHOSPHODIESTERASE INHIBITORS TO TREAT BLAST-INDUCED TINNITUS AND/OR HEARING LOSS” (WAYNE STATE UNIVERSITY, priority 2013, published 2016).

The test system of series [1] is blast-exposed Sprague Dawley rats (wave 1 amplitude). Put plainly: ABR wave 1 (P1N1) amplitude after blast exposure. Conditions: 28 kHz. The format is in vivo, rat. As to the method: ABRs were recorded to evaluate hearing thresholds. Each rat was anesthetized using a mixture of air (0.41/min) and isoflurane (2-3%, v/v) and placed in a prone position with its head fixed to a stereotaxic frame. Body temperature was maintained using a warming blanket connected to a thermostatic controller (Harvard Instruments, Holliston, Mass.). Acoustic stimuli consisted of 0.1 ms clicks or 10 ms pure-tone bursts presented at 4, 8, 12, 16, 20, or 28 kHz and delivered through a speaker tube inserted into the external auditory canal. Three subcutaneous platinum-coated tungsten electrodes were used to record ABR waveforms, with the reference electrode inserted below the pinna ipsilateral to the speaker tube, the grounding electrode inserted below the contralateral pinna, and the recording electrode inserted at the vertex. […] Data were recorded using BioSigRP® and SigGenRP® software (TDT, Alachua, Fla.) installed on an IBM computer connected to System 3 TDT workstation.
There is a significant reduction in wave 1 amplitudes in human subjects suffering from tinnitus despite a seemingly normal audiogram. In order to assess the possibility of underlying wave 1 amplitude reduction despite recovery of ABR thresholds, wave 1 amplitudes for 28 kHz frequency were measured at pre-blast and at 6 weeks post-blast and compared between the Treated and Untreated groups (FIGS. 7A and 7B). […]

Series [2] concerns rats exposed to embolic stroke. The following applies: sildenafil treated rats; cited from earlier work.
The conditions of series [3]: upon oral intake; cited from earlier work.
Series [4] deals with Neurospheres isolated from the subventricular zone of adult rat brains. The following applies: neurospheres treated with sildenafil; cited from earlier work.
The test system of series [5] is blast-exposed Sprague Dawley rats (blast-induced tinnitus). The series can be described thus: Gap-detection testing (acoustic startle) for blast-induced tinnitus.
Excerpt: Thirty adult Sprague Dawley rats (110 days old, 250-300 g) were purchased from Charles River Laboratories (Wilmington, Mass.).
Animals underwent 8 rounds of behavior testing to stabilize baseline Gap-detection and PPI performance prior to blast or sham-blast exposure. […] Briefly, each rat was placed in a custom-built polycarbonate restrainer (FIG. 1) and set inside a lit startle monitor cabinet equipped with two ceiling speakers for background sound/prepulses and startle stimuli. Restrainers were mounted on top of a platform connected to a piezoelectric transducer, which measured downward startle force. Acoustic stimuli and startle force were calibrated using a Newton impulse calibrator (Kinder Scientific) and a microphone (Model 4016; ACO Pacific, Belmont, Calif.).
During the Gap-detection procedure, rats were exposed to constant 60 dB sound pressure level (SPL) background noise consisting of 2 kHz bandpass signals from 2-4 kHz, 6-8 kHz, 8-10 kHz, 10-12 kHz, 14-16 kHz, 18-20 kHz, or 26-28 kHz, or BBN (2-30 kHz). They were subjected to either a 50 ms white noise burst startle stimulus (startle only; dominating plateau from 3-37 kHz with energy up to 97.5 kHz) presented at 115 dB or the startle stimulus preceded by a 40 ms silent period beginning 90 ms before the startle stimulus (Gap). For each testing session, rats were presented 8 times with the startle only and Gap conditions for each frequency bandpass signal and BBN. The PPI procedure was identical to the Gap-detection procedure except that no background sound was presented. Rats were subjected to either the startle stimulus alone (startle only) or the startle stimulus preceded by a 40 ms prepulse beginning 90 ms before the startle stimulus. Prepulses (60 dB, SPL) consisted of the same frequencies as those used for background noise.
A two-minute acclimatization period was given at the beginning of each session, followed by two startle stimuli presented without background sound to trigger any initial, exaggerated startle reflexes. Gap-detection and PPI testing sessions lasted a little over thirty minutes each. […]
The test system of series [6] is focal cerebral cryolesion. Conditions: treatment following cryolesion; cited from earlier work.

Regarding `CCCc1nn(C)c2c(=O)[nH]c(-c3cc(S(=O)(=O)N4CCN(C)CC4)ccc3OCC)nc12` [sildenafil, 1-[4-ethoxy-3-(6,7-dihydro-1-methyl-7-oxo-3-propyl-1H-pyrazolo[4,3-d]pyrimidin-5-yl)phenylsulfonyl]-4-methylpiperazine], in series [1] (exposed ear, 6 weeks post-blast), the “Wave 1 (P1N1) amplitude, Treated vs Untreated” value was “no significant differences between the two groups at time-matched points”. For the same compound, the “Decrease of wave 1 amplitude” value in series [1] (6 weeks after triple blast exposure, Treated group (same in Untreated)) was 45%. The “Effects after embolic stroke” value in series [2] was “improvement in angiogenesis, selective increase in cerebral blood flow, and enhanced neurological functional recovery up to 6 weeks post-injury”. Also, the time to peak (Tmax) (as a rule, the time at which the peak concentration occurs) in series [3] is not above 11 min. In addition, in series [4], the cGMP concentration result is reported as “increased cGMP concentration”. Besides, in series [5] (Sham group: sildenafil 10 mg/kg, no blast exposure, throughout the study), the “Gap-detection in Sham group (drug, no blast): tinnitus symptoms produced by the drug” value is given as “the drug itself did not produce tinnitus symptoms”. Besides, the “Effect on high-frequency tinnitus (overall)” value in series [5] (high-frequency (26-28 kHz) tinnitus, reemerged afterwards) was “suppressed high-frequency tinnitus from 3-6 weeks post-blast”. The “Duration of therapeutic effect on blast-induced tinnitus (Gap-detection)” value in series [5] (sildenafil 10 mg/kg oral gavage, two 7-day rounds) was “maintained up to week 6”.
Consider `CCCOc1ccccc1-c1nc2nn[nH]c2c(=O)[nH]1` [Zaprinast], for which the “Effects after focal cerebral cryolesion” value in series [6] was “improved functional recovery, reduced oxidative stress, and prevention of apoptotic cell death”.
